Earlier results, collected in US20180193305A1, “CROMOLYN COMPOSITIONS FOR TREATMENT OF CHRONIC COUGH DUE TO IDIOPATHIC PULMONARY FIBROSIS” (Patara Pharma, LLC, priority 2016, published 2018).
Read-outs that look alike come from different tables or passages of the source.

Settings: in vivo

Oral bioavailability: ~1%
Oral bioavailability (listed as cromolyn): about 1%
SMILES: O=C(O)c1cc(=O)c2c(OCC(O)COc3cccc4oc(C(=O)O)cc(=O)c34)cccc2o1 [cromolyn sodium, disodium 5,5′-(2-hydroxypropane-1,3-diyl)bis(oxy)bis(4-oxo-4H-chromene-2-carboxylate)]
